Measured values from ChEMBL document CHEMBL1151704, “Nicotinic acid receptor agonists” (J Med Chem, 2008).

Assays:
[1] = species on record: Rattus norvegicus; assay: Reduction of plasma free fatty acid in Sprague-Dawley rat; type: functional
[2] = Therapeutic index, ratio of ED50 for plasma free fatty acid in Sprague-Dawley rat to ED50 for vasodilation in mouse; conditions: read-out: Ratio ED50
[3] = target: Hydroxycarboxylic acid receptor 2 (Homo sapiens, UniProt Q8TDS4); assay: Activity at GPR109a assessed as inhibition of forskolin-stimulated cAMP production; type: functional
[4] = target: Hydroxycarboxylic acid receptor 3 (Homo sapiens, UniProt P49019); assay: Activity at GPR109b assessed as inhibition of forskolin-stimulated cAMP production; type: functional
Sequence of Hydroxycarboxylic acid receptor 3 (P49019 whole entry): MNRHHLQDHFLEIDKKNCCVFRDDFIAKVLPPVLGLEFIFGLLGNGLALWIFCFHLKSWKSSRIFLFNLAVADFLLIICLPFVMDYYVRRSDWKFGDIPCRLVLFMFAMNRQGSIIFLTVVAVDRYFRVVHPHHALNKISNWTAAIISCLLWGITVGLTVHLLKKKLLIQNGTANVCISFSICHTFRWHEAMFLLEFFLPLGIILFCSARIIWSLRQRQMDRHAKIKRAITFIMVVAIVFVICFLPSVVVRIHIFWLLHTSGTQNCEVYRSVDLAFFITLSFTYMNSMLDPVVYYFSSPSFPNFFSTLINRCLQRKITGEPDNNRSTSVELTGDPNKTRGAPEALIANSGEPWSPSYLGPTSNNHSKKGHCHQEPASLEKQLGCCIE

Sequence of Hydroxycarboxylic acid receptor 2 (Q8TDS4 whole entry): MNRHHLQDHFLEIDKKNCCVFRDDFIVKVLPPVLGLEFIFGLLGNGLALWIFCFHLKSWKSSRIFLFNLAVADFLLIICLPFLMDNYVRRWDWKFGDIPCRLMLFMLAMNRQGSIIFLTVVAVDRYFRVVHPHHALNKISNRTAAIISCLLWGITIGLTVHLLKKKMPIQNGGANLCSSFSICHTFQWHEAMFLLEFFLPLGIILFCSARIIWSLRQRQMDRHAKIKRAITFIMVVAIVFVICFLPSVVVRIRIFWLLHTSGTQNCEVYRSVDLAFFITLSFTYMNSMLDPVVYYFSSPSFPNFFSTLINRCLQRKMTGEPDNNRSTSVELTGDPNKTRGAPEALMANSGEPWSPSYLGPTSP

Compound | ED50 [1] [mg/kg] | selectivity ratio [2] | EC50 [3] [nM] | IC50 [3] [nM] | IC50 [4] [nM]
O=C(CCc1nc(-c2ccc(O)cn2)no1)Nc1ccccc1C(=O)O | 9 | > 70 |  |  | 
CC(C)n1nnc2cc(C(=O)O)ccc21 |  |  | 400 |  | 
O=C(CCc1nc(-c2ccc(O)cc2)no1)Nc1ccccc1C(=O)O | 9 | > 70 |  |  | 
CC1(c2ccccc2)OC(C(=O)O)=CC1=O (configuration not stated) [ACIFRAN] |  |  |  | 500 | 3000
